pIC50: −log10 of the molar value. Calls of active or inactive are those of the source. No cut-off for these calls is given here.
What was measured:
Allium ampeloprasum [1] = test: Inhibition of very long chain fatty acid elongase in Allium ampeloprasum microsome using C20:0 as substrate and [14C]-malonate at 1 x 10^-4 M after 10 to 20 min by liquid scintillation counting; format: microsomes
Allium ampeloprasum [2] = test: Inhibition of very long chain fatty acid elongase in Allium ampeloprasum microsome using C18:0 as substrate and [14C]-malonate at 1 x 10^-4 M after 10 to 20 min by liquid scintillation counting; format: microsomes
Echinochloa crus-galli = test: Herbicidal activity against Echinochloa crus-galli (barnyard grass) by pot assay; format: functional
Allium ampeloprasum [3] = test: Inhibition of very long chain fatty acid elongase in Allium ampeloprasum microsome using C18:0 as substrate and [14C]-malonate at 1 x 10^-5 M after 10 to 20 min by liquid scintillation counting; format: microsomes
Allium ampeloprasum [4] = test: Inhibition of very long chain fatty acid elongase in Allium ampeloprasum microsome using C20:0 as substrate and [14C]-malonate at 1 x 10^-5 M after 10 to 20 min by liquid scintillation counting; format: microsomes
[5] = Inhibition of very long chain fatty acid elongase in Allium ampeloprasum microsome using C18:0 as substrate and [14C]-malonate after 10 to 20 min by liquid scintillation counting; format: microsomes; details: read-out: I50
[6] = Inhibition of very long chain fatty acid elongase in Allium ampeloprasum microsome using C20:0 as substrate and [14C]-malonate after 10 to 20 min by liquid scintillation counting; format: microsomes; details: read-out: I50
Allium ampeloprasum [7] = test: Inhibition of very long chain fatty acid elongase in Allium ampeloprasum microsome using C20:0 as substrate and [14C]-malonate at 1 x 10^-7 M after 10 to 20 min by liquid scintillation counting; format: microsomes
Allium ampeloprasum [8] = test: Inhibition of very long chain fatty acid elongase in Allium ampeloprasum microsome using C18:0 as substrate and [14C]-malonate at 1 x 10^-6 M after 10 to 20 min by liquid scintillation counting; format: microsomes
Allium ampeloprasum [9] = test: Inhibition of very long chain fatty acid elongase in Allium ampeloprasum microsome using C20:0 as substrate and [14C]-malonate at 1 x 10^-6 M after 10 to 20 min by liquid scintillation counting; format: microsomes
Allium ampeloprasum [10] = test: Inhibition of very long chain fatty acid elongase in Allium ampeloprasum microsome using C18:0 as substrate and [14C]-malonate at 1 x 10^-8 M after 10 to 20 min by liquid scintillation counting; format: microsomes
Allium ampeloprasum [11] = test: Inhibition of very long chain fatty acid elongase in Allium ampeloprasum microsome using C18:0 as substrate and [14C]-malonate at 3 x 10^-9 M after 10 to 20 min by liquid scintillation counting; format: microsomes
Allium ampeloprasum [12] = test: Inhibition of very long chain fatty acid elongase in Allium ampeloprasum microsome using C20:0 as substrate and [14C]-malonate at 3 x 10^-9 M after 10 to 20 min by liquid scintillation counting; format: microsomes
Allium ampeloprasum [13] = test: Inhibition of very long chain fatty acid elongase in Allium ampeloprasum microsome using C18:0 as substrate and [14C]-malonate at 3 x 10^-8 M after 10 to 20 min by liquid scintillation counting; format: microsomes
Allium ampeloprasum [14] = test: Inhibition of very long chain fatty acid elongase in Allium ampeloprasum microsome using C20:0 as substrate and [14C]-malonate at 3 x 10^-8 M after 10 to 20 min by liquid scintillation counting; format: microsomes
Allium ampeloprasum [15] = test: Inhibition of very long chain fatty acid elongase in Allium ampeloprasum microsome using C20:0 as substrate and [14C]-malonate at 1 x 10^-8 M after 10 to 20 min by liquid scintillation counting; format: microsomes
Allium ampeloprasum [16] = test: Inhibition of very long chain fatty acid elongase in Allium ampeloprasum microsome using [14C]-malonate assessed per vial at 0.1 uM after 10 to 20 min by liquid scintillation counting; format: microsomes
Allium ampeloprasum [17] = test: Inhibition of very long chain fatty acid elongase in Allium ampeloprasum microsome using C18:0 as substrate and [14C]-malonate at 1 x 10^-7 M after 10 to 20 min by liquid scintillation counting; format: microsomes
Allium ampeloprasum [18] = test: Inhibition of very long chain fatty acid elongase-mediated elongation to arachidic acid in Allium ampeloprasum microsome using [14C]-malonate after 10 to 20 min by liquid scintillation counting; format: microsomes
Allium ampeloprasum [19] = test: Competitive inhibition of very long chain fatty acid elongase in Allium ampeloprasum microsome using C18:0-CoA as substrate after 10 min by Lineweaver-Burk plot analysis; format: microsomes

Row | Compound | inhibition (INH) (Allium ampeloprasum [1]) [%] | inhibition (INH) (Allium ampeloprasum [2]) [%] | ED50 (Echinochloa crus-galli) | inhibition (INH) (Allium ampeloprasum [3]) [%] | inhibition (INH) (Allium ampeloprasum [4]) [%] | pIC50 [5] | pIC50 [6] | inhibition (INH) (Allium ampeloprasum [7]) [%] | inhibition (INH) (Allium ampeloprasum [8]) [%] | inhibition (INH) (Allium ampeloprasum [9]) [%] | inhibition (INH) (Allium ampeloprasum [10]) [%] | inhibition (INH) (Allium ampeloprasum [11]) [%] | inhibition (INH) (Allium ampeloprasum [12]) [%] | inhibition (INH) (Allium ampeloprasum [13]) [%] | inhibition (INH) (Allium ampeloprasum [14]) [%] | inhibition (INH) (Allium ampeloprasum [15]) [%] | INH (Allium ampeloprasum [16]) [pmol] | inhibition (INH) (Allium ampeloprasum [17]) [%] | inhibition (Allium ampeloprasum [18]) [%] | inhibition (Allium ampeloprasum [19])
1 | CCC1(C[C@@]2(c3cccc(Cl)c3)CO2)C(=O)c2ccccc2C1=O [(R)-INDANOFAN] | 38 | 25 | inactive | 23 | 27 | < 3.00 | < 3.00 | 9 | 14 | 18 |  |  |  |  |  |  |  |  |  | 
2 | CCC1(CC2(c3cccc(Cl)c3)CO2)C(=O)c2ccccc2C1=O (stereo not drawn) [(RS)-INDANOFAN] |  |  | 0.0524 KgAi/ha |  |  | 7.52 | 7.15 | 60 |  |  | 19 | 9 | 8 | 49 | 31 | 11 | 3.6 | 82 | 86 | 
3 | CCC1(C[C@]2(c3cccc(Cl)c3)CO2)C(=O)c2ccccc2C1=O [(S)-INDANOFAN] |  |  | 0.0254 KgAi/ha |  |  | 7.77 | 7.60 | 76 |  |  | 30 | 7 | 15 | 71 | 54 | 31 |  | 93 |  | Active
